Values quoted from earlier work, collected in patent US20080286343A1, “Solid form” (priority 2007, published 2008).

Details: g water per 1 g active; slightly soluble

Cn1c(=O)c2[nH]cnc2n(C)c1=O [Theophylline]
Solubility in water (1 g in ... g water): 100-1000 g water
